# Assays:
# CNE2 cells = test: In-vitro uptake of hypericin, confocal fluorescence microscopy; format: cell-based; details: 2 hypericin, about 6 hours, physiological conditions
# Procedure: Confocal fluorescence microscopy is used to study CNE2 cells treated with 2 hypericin and A-431 cells treated with Hypericin-Au-EGFR theragnostic probe for about 6 hours under physiological conditions. […] This will be ideal for a probe for diagnosis and therapy.
# A-431 cells = test: as above; format: cell-based, human; details: about 3 hours incubation, FIG. 9b
# Procedure: Targeting and localization of the nanoprobes to cellular receptors is assessed using dark field contrast imaging and confocal fluorescence microscopy. Briefly, A-431 cells are incubated with the nanoprobes for about 3 hours at about 37° C. The cells are then washed in PBS, fixed in 2% paraformaldehyde for about 10 mins and mounted in Vectashield fluorescent mounting medium (Vector Laboratories, Burlingame, Calif.). The cells are visualized via dark field illumination system (CytoViva, Auburn, Ala.) attached to a Nikon Eclipse 80i microscope. The in-vitro localization of the nanoprobes is also assessed by exciting the cells using a 488 nm argon laser. Fluorescence emission in the wavelength range of 590-630 nm is split by a dichroic filter and detected through a band pass filter (BP-610 nm; Omega Optical, Brattleboro, Vt.). […]
# Confocal fluorescence microscopy is used to study CNE2 cells treated with 2 hypericin and A-431 cells treated with Hypericin-Au-EGFR theragnostic probe for about 6 hours under physiological conditions. […]
# Using confocal laser scanning microscope, the in-vitro uptake of hypericin-GNP labeled with anti-EGFR after about 3 hours incubation is also assessed. […] The intensity of hypericin fluorescence following incubation of hypericin alone is greater compared to incubating the cells with bioconjugated hypericin GNP conjugate (FIG. 9b). […]
# A-431 cell lines = test: PDT in cellular model, white light, apoptosis/necrosis staining (Example 7); format: cell-based, human; details: about 12 hours incubation, broadband white light; hypericin 2-10 μM
# Procedure: After establishing the internalization and delivery capabilities of Hypericin-Au-EGFR probe, the therapeutic potential of the probe by conducting a PDT experiment in a cellular model is examined. Hypericin-Au-EGFR probe and various amounts of hypericin are incubated with A-431 cell lines for about 12 hours and PDT is conducted using a broadband excitation using white light. Post PDT images are recorded using a confocal fluorescence microscopy with differential staining for apoptosis in green (as indicated by the white encircled area) and necrosis in red (as shown by the lighter shade indicated by the white arrow) to assess the PDT effect.
smiles,measurement,setting,value
Cc1cc(O)c2c(=O)c3c(O)cc(O)c4c5c(O)cc(O)c6c(=O)c7c(O)cc(C)c8c1c2c(c34)c(c78)c65 [hypericin],hypericin fluorescence in cells,CNE2 cells,hypericin fluorescence from within the cell
same,"intensity of hypericin fluorescence, hypericin alone compared to bioconjugated hypericin GNP",A-431 cells,greater
same,mode of cell death after PDT,A-431 cell lines,cell death via necrosis
